Patent publication US8198293B2, “Oxymatrine compositions and related methods for treating and preventing chronic infectious diseases” (priority 2008, dated 2012)

Assays:
[1] = tested on: enterovirus infection (ME/CFS patients); assay: Oxymatrine open-label, controlled clinical study in ME/CFS patients with enterovirus infection; type: in vivo, human
Protocol: An open-label, controlled study was conducted on patients who fulfilled the international criteria for myalgic encephalomyelitis (ME)/chronic fatigue syndrome (CFS) and had virological evidence of enterovirus infection.
One hundred patients took oxymatrine at dose of 200-300 mg twice a day with or without food for a minimum of three months. Patients who could not complete the course due to side effects or intolerance were considered as failures (intent-to-treat analysis). Of the first group, 52% ( 52/100) responded to oxymatrine, as compared to 6% ( 7/114) of the control groups (p<0.000001, x^2 test). Of the next 104 patients, 52% responded to treatment. […] Fifty-three percent ( 57/107) of patients with elevated coxsackie virus B (CVB) and echovirus (Ech) antibody responded to therapy and 50% ( 49/97) of patients with non-typeable EV infections improved (NS, x^2 test). Fifty-two percent ( 47/91) of patients with positive EV protein in stomach biopsies responded, whereas 56% ( 5/9) of patients with negative biopsies responded (NS, x^2 test).
Relapse of symptoms was common after discontinuing oxymatrine. Fifty-nine percent ( 19/32) of patients (4 male, 15 female) relapsed within two days to one month after discontinuation of oxymatrine. Eighty-seven percent ( 13/15) of patients who relapsed responded to restart of oxymatrine. Subsequent responders were continued on oxymatrine beyond six months.
A small percentage ( 2/204) of patients had transient increase in potassium, which returned to normal without specific treatment. A small percentage of patients ( 2/204) had elevated blood pressure that prompted discontinuation of therapy. […] Transient, moderate increase in pre-existing symptoms were reported by more than 50% of the patients but most patients continued to take the herbs at the same or reduced dose. Twenty patients (10%) stopped oxymatrine within the first eight weeks due to intolerable side effects. […]

[2] = tested on: cytokine gene expression (Th1/Th2); assay: Cytokine gene expression study before and during/after oxymatrine; type: in vivo, human
Text: FIG. 4 graphically illustrates a cytokine gene expression study before and after oxymatrine (RQ is the gene expression ratio).
FIG. 5 graphically illustrates cytokine gene expression of interleukin-12P35+P40/interleukin-10 in tissue from CFS patients at the start of (pre-oxymatrine) and during oxymatrine therapy (n=17).
A cytokine gene expression study on blood samples before (Sample 2) and after (Sample 3) taking oxymatrine for 15 months in one patient, is graphically illustrated in FIG. 4. […] FIG. 5 illustrates that neutralizing antibodies CBV 3 and CBV 4 were obtained serially over a three year period (performed by ARUP laboratory, Salt Lake City, Utah).

enterovirus protein = assay: Immunoperoxidase staining of stomach biopsy for enterovirus protein (5D8/1); type: in vivo, human; details: one patient (case 5), before vs after taking oxymatrine for 6 months; correlated with symptomatic improvement
Text: FIG. 2 illustrates the infected human stomach (biopsy of case 5 stained with 5D8/1) before treatment with oxymatrine.
FIG. 3 illustrates the stomach biopsy of case 5 stained with 5 D8/1 after taking oxymatrine for 6 months.
FIG. 2 illustrates immunoperoxidase staining for enterovirus protein in a stomach biopsy before oxymatrine therapy for one patient. […] The decrease in viral protein correlated with significant symptomatic improvement.

[3] = tested on: Mycobacterium avium complex (MAC); assay: Case report: Mycobacterium avium complex infection of the lung; type: in vivo, human
Protocol: A person with known history of Mycobacterium avium complex (MAC) infection of the lung and bronchiectasis for several years was treated with clarithromycin, ethambutol, ciprofloxacin and rifabutin for about five years. […] Intravenous amikacin was added following right middle and left lingula lobectomy. In spite of the above therapy, sputum and repeat bronchial washing obtained by bronchoscopy grew MAC within three weeks. A computed tomography scan of the chest remained unchanged except for the post-surgical changes.
Because of persistent positive cultures despite the four drug therapies, the patient was started on oxymatrine, which they tolerated well. […] Sputum became clear in color then resolved. About two months after the start of oxymatrine, the patient had fevers, flu-like symptoms, increase in non-productive cough, bilateral uveitis and elevation of liver enzymes to 3.5 times normal values. The symptoms lasted two weeks and resolved after tapering dose of oxymatrine to 200 mg bid. Liver enzymes returned to normal within six weeks. […] The anti-MAC medications were discontinued after […] of oxymatrine therapy. The dose of oxymatrine was tapered to 100 mg tid at four and a half months of therapy and then stopped after six months of total therapy. The patient felt well at the six month follow-up.

enterovirus [4] = assay: Case report: acute enterovirus infection of the gastrointestinal tract; type: in vivo, human; details: Example 10 patient, 200 mg bid, after ten days
Text: A person developed subacute onset of severe fatigue, nausea, anorexia and progressive weight loss of 20 pounds following an upper respiratory infection.

enterovirus [5] = assay: Case reports: diarrhea with viral/enterovirus protein in colon biopsy (Examples 11, 12); type: in vivo, human
Text: A person developed continuing watery diarrhea, as many as twenty episodes a day, and mild fatigue for three months. Laboratory studies and stool work-up were completely negative. […] They failed Asacol therapy.
A person developed severe watery diarrhea for two months. Stool evaluation was unremarkable. […] They continued to do well for six months on the medication. A decrease of medication to half the dose cause a relapse of the symptoms, which resolved after increasing the dosage.

hepatitis B virus = details: HBV transgenic mice, cited from earlier work
[6] = side effects in 176 patients having taken oxymatrine
[7] = blood samples of one patient before and after 15 months of oxymatrine (FIG. 4)
[8] = compared to placebo-treated animals

## O=C1CCC[C@@H]2[C@H]3CCC[N@+]4([O-])CCC[C@@H](CN12)[C@@H]34 [oxymatrine]
[1]; 13/15
  relapsed patients who responded to restart of oxymatrine: Eighty-seven
[1]; 19/32, within two days to one month after discontinuation
  patients relapsed after discontinuation of oxymatrine: Fifty-nine
[1]; better tolerated when dose increased gradually over 2-3 weeks or longer
  duration of the increase in symptoms: a few days to several weeks
[1]; both, human, in vivo
  patients reporting transient, moderate increase in pre-existing symptoms: more than 50%
[1]; compared to baseline values
  changes of other chemistry parameters and complete blood counts (CBC): no significant changes
[1]; except variable increase of pre-existing symptoms during the first 1-2 days of maximal doses
  tolerability in most of the patients: tolerated oxymatrine well
[1]; first group (52/100), 200-300 mg twice a day, minimum three months, intent-to-treat, control 6% (7/114)
  patients responded to oxymatrine: 52%
[1]; human, in vivo
  serious complications during therapy: No serious complications
[1]; next 104 patients
  patients responded to treatment: 52%
[1]; of 204 patients
  patients with elevated blood pressure that prompted discontinuation of therapy: 2/204
[1]; of 204 patients, returned to normal without specific treatment
  patients with transient increase in potassium: 2/204
[1]; patients with elevated coxsackie virus B and echovirus antibody (57/107)
  patients responded to therapy: Fifty-three
[1]; patients with non-typeable EV infections (49/97)
  patients improved: 50%
[1]; patients with positive EV protein in stomach biopsies (47/91)
  patients responded: Fifty-two
[1]; [6]
  Diffuse rashes, % of total patients: <1%
  Dry eyes and mouth, % of total patients: 1%
  Fevers, % of total patients: 2%
  Herpes simplex virus outbreak after discontinuation, % of total patients: 1%
  Increase in blood pressure, % of total patients: 1%
  Increase in edema, % of total patients: 1%
  Increased abdominal pain, % of total patients: 6%
  Increased bladder symptoms, % of total patients: 2%
  Increased diarrhea, % of total patients: 4%
  Increased dizziness, % of total patients: 2%
  Increased fatigue, % of total patients: 4%
  Increased headache, % of total patients: 8%
  Increased insomnia, % of total patients: 1%
  Increased myalgia, % of total patients: 30%
  Increased nausea, % of total patients: 6%
  Increased palpitation, chest pain, % of total patients: 3%
  Increased polyarthralgia, % of total patients: 1%
  Increased sinus congestion, % of total patients: 3%
  Inflammation of skin lesion, % of total patients: 1%
  New rashes, % of total patients: <1%
  Seizure (petit mal), % of total patients: <1%
  Weight gain, % of total patients: 1%
[1]; toward the end of three months of medication
  outcome in one patient with severe increase in febrile response and marked worsening of symptoms: lasting remission
[1]; within the first eight weeks, twenty patients
  patients who stopped oxymatrine due to intolerable side effects: 10%
[2]; [7]
  Th1 cytokines gene expression (interleukin-2, interleukin-12, interleukin-15): significant increase
  regulatory Th2 cytokine gene expression (interleukin-10): significant decrease
[2]; seven responders of n=17 CFS patients, pre-oxymatrine vs during therapy (FIG. 5)
  increase of the interleukin-12P35+P40/interleukin-10 gene expression ratio: greater than 2 fold
[2]; ten non-responders of n=17 CFS patients (FIG. 5)
  interleukin-12P35+P40/interleukin-10 gene expression ratio: remained the same or decreased
Enterovirus protein
  enterovirus protein in stomach biopsy by staining with monoclonal antibody 5D8/1: significant reduction in viral protein
[3]; about two months after start, returned to normal within six weeks after dose tapering to 200 mg bid
  elevation of liver enzymes: 3.5 times normal values
[3]; in vivo
  repeat computed tomography scans of the chest: healing and calcifications of the lesions
[3]; six months after onset of oxymatrine therapy, with anti-MAC medications
  repeat bronchial washing culture: no growth of MAC
[3]; within two months
  night sweats: decreased from twice a week to once every two weeks
Enterovirus [4]
  clinical outcome: resumed their normal activity
Enterovirus [5]; Example 11 patient, oxymatrine 200 mg bid
  diarrhea outcome: resolved completely in a few days
Enterovirus [5]; Example 12 patient
  diarrhea outcome: resolved within one week
Hepatitis B virus; [8]
  level of gamma interferon: increased more than three-fold
  level of interleukin-2: increased more than three-fold
  level of interleukin-4: decreased more than three-fold
  level of interleukin-10: decreased more than three-fold
Hepatitis B virus
  effect on hepatitis B viremia, mRNA and protein levels: No effect
